From the NIST ThermoML archive (doi:10.1021/je800110r)

Conditions: Liquid, Vibrating tube method

CCCCCCCCCC [decane]
Conditions | mass density [kg/m3]
323.15 K, 32682 kPa | 732.9
323.15 K, 32750 kPa | 733
323.15 K, 32786 kPa | 733
323.15 K, 32870 kPa | 732.9
323.15 K, 33409 kPa | 733.4
323.15 K, 33442 kPa | 733.3
323.15 K, 33464 kPa | 733.5
323.15 K, 33482 kPa | 733.3
323.15 K, 33530 kPa | 733.5
323.15 K, 33575 kPa | 733.5
323.15 K, 33593 kPa | 733.4
323.15 K, 34001 kPa | 733.8
323.15 K, 34025 kPa | 733.8
323.15 K, 34059 kPa | 733.8
323.15 K, 34079 kPa | 733.8
323.15 K, 34114 kPa | 733.9
323.15 K, 34138 kPa | 733.8
323.15 K, 34175 kPa | 734
323.15 K, 34199 kPa | 733.8
323.15 K, 34237 kPa | 733.8
323.15 K, 34400 kPa | 734
323.15 K, 34425 kPa | 734.1
323.15 K, 34440 kPa | 734
323.15 K, 34451 kPa | 734.1
323.15 K, 34456 kPa | 734
323.15 K, 34460 kPa | 734.2
323.15 K, 34463 kPa | 734.1
323.15 K, 34464 kPa | 734.1
323.16 K, 356 kPa | 707.2
323.16 K, 379 kPa | 707.1
323.16 K, 400 kPa | 707.2
323.16 K, 417 kPa | 707.2
323.16 K, 438 kPa | 707.2
323.16 K, 464 kPa | 707.2
323.16 K, 488 kPa | 707.3
323.16 K, 517 kPa | 707.3
323.16 K, 541 kPa | 707.3
323.16 K, 575 kPa | 707.3
323.16 K, 612 kPa | 707.4
323.16 K, 646 kPa | 707.4
323.16 K, 728 kPa | 707.6
323.16 K, 944 kPa | 707.8
323.16 K, 1001 kPa | 707.8
323.16 K, 1024 kPa | 707.7
323.16 K, 1047 kPa | 707.8
323.16 K, 1070 kPa | 707.8
323.16 K, 1102 kPa | 707.8
323.16 K, 1211 kPa | 708
323.16 K, 1244 kPa | 708
323.16 K, 1280 kPa | 708.1
323.16 K, 1314 kPa | 708
323.16 K, 1337 kPa | 708.2
323.16 K, 1362 kPa | 708.2
323.16 K, 1381 kPa | 708.2
323.16 K, 1405 kPa | 708.1
323.16 K, 1427 kPa | 708.2
323.16 K, 1453 kPa | 708.3
323.16 K, 1479 kPa | 708.2
323.16 K, 1503 kPa | 708.2
323.16 K, 1524 kPa | 708.3
323.16 K, 1553 kPa | 708.2
323.16 K, 1582 kPa | 708.2
323.16 K, 1608 kPa | 708.4
323.16 K, 1630 kPa | 708.4
323.16 K, 1671 kPa | 708.3
323.16 K, 1694 kPa | 708.4
323.16 K, 1723 kPa | 708.5
323.16 K, 1748 kPa | 708.5
323.16 K, 1778 kPa | 708.5
323.16 K, 1812 kPa | 708.4
323.16 K, 1848 kPa | 708.5
323.16 K, 1871 kPa | 708.5
323.16 K, 1898 kPa | 708.7
323.16 K, 1945 kPa | 708.7
323.16 K, 1973 kPa | 708.7
323.16 K, 2008 kPa | 708.6
323.16 K, 2050 kPa | 708.7
323.16 K, 2081 kPa | 708.7
323.16 K, 2113 kPa | 708.8
323.16 K, 2151 kPa | 708.7
323.16 K, 2201 kPa | 708.9
323.16 K, 2247 kPa | 708.9
323.16 K, 2281 kPa | 708.8
323.16 K, 2332 kPa | 708.9
323.16 K, 2405 kPa | 709.1
323.16 K, 2718 kPa | 709.4
323.16 K, 2738 kPa | 709.3
323.16 K, 2755 kPa | 709.4
323.16 K, 2772 kPa | 709.4
323.16 K, 2789 kPa | 709.5
323.16 K, 2809 kPa | 709.5
323.16 K, 2845 kPa | 709.6
333.14 K, 21082 kPa | 717.8
333.14 K, 21129 kPa | 717.8
333.14 K, 26540 kPa | 722.1
333.14 K, 26569 kPa | 722.1
333.14 K, 26609 kPa | 722
333.14 K, 26648 kPa | 722.2
333.14 K, 26696 kPa | 722.2
333.14 K, 26733 kPa | 722.2
333.14 K, 26773 kPa | 722.3
333.14 K, 26813 kPa | 722.3
333.14 K, 26859 kPa | 722.4
333.14 K, 26912 kPa | 722.4
333.14 K, 26958 kPa | 722.4
333.14 K, 26993 kPa | 722.4
333.14 K, 27039 kPa | 722.4
333.14 K, 27087 kPa | 722.4
333.14 K, 27129 kPa | 722.6
333.14 K, 27171 kPa | 722.5
333.14 K, 27219 kPa | 722.5
333.14 K, 30020 kPa | 724.6
333.14 K, 30058 kPa | 724.6
333.14 K, 30100 kPa | 724.7
333.14 K, 30134 kPa | 724.7
333.14 K, 30168 kPa | 724.7
333.14 K, 30197 kPa | 724.7
333.14 K, 30227 kPa | 724.8
333.14 K, 30265 kPa | 724.9
333.14 K, 30291 kPa | 724.8
333.14 K, 30312 kPa | 724.8
333.14 K, 30350 kPa | 724.9
333.14 K, 30376 kPa | 724.8
333.14 K, 30402 kPa | 724.9
333.14 K, 30432 kPa | 724.9
333.14 K, 30458 kPa | 724.9
333.14 K, 30480 kPa | 725
333.14 K, 30502 kPa | 725
333.14 K, 30528 kPa | 725
333.14 K, 30566 kPa | 725
333.14 K, 30592 kPa | 724.9
333.14 K, 30623 kPa | 725
333.14 K, 30654 kPa | 725.2
333.14 K, 30689 kPa | 725.2
333.14 K, 31374 kPa | 725.5
333.14 K, 31402 kPa | 725.6
333.14 K, 31439 kPa | 725.6
